# In patent publication US11591341B2 (ALIGOS THERAPEUTICS, INC., priority 2019, dated 2023):
# Test system: HBV
# Test: HBV-DNA Antiviral Assay Using HepG2.117 Cells (intracellular HBV DNA by qPCR)
# Assay type: cell-based, hepatitis B virus (genotype D)
# Conditions: HBV DNA inhibition, HepG2.117 cells, intracellular HBV DNA by qPCR (Table 4); read-out: EC50
# Summary of the method: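 HepG2.117 cells (genotype D HBV, Tet-off) were induced by doxycycline withdrawal and treated for 3 days with 9 concentrations in 4-fold dilution, 2% DMSO final. Intracellular HBV DNA was measured by qPCR against a standard curve, with ATPlite viability read in parallel. EC50, EC90 and CC50 came from fits against the DMSO control.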
row,SMILES,EC50 [nM]
1,"COc1ccc(-n2c(-c3ncccc3Cc3ccccc3)c3n(c2=O)CCN(C(=O)c2ccc(Br)c(Cl)c2)C3)cc1 [Example 308, 1-(3-benzyl-2-pyridyl)-7-(4-bromo-3-chloro-benzoyl)-2-(4-methoxyphenyl)-6,8-dihdyro-5H-imidazo[1,5-a]pyrazin-3-one]",500 to 5000

# Same assay, conditions: Hepatitis B virus, HepG2.117
row,SMILES,EC50 [nM]
1,"CC(C)Oc1ccc(-n2c(C(=O)N[C@@H](C)c3ccc(C#N)cc3)c3n(c2=O)CCN(C(=O)c2ccc(Br)c(Cl)c2)C3)cc1 (stereo in doubt) [Example 234, 7-(4-bromo-3-chloro-benzoyl)-2-(4-isopropoxyphenyl)-3-oxo-N-[rac-(1S)-1-(4-cyanophenyl)ethyl]-6,8-dihydro-5H-imidazo[1,5-a]pyrazine-1-carboxamide]",100 to 500
2,"CC1Cn2c(c(C(=O)NCc3ccccc3)n(-c3ccc(OC4CC4)cc3)c2=O)CN1C(=O)c1ccc(Br)c(Cl)c1 (racemic) [Example 301, rac-(6R)-N-benzyl-7-(4-bromo-3-chloro-benzoyl)-2-[4-(cyclopropoxy)phenyl]-6-methyl-3-oxo-6,8-dihydro-5H-imidazo[1,5-a]pyrazine-1-carboxamide]",500 to 5000
3,"NC(=O)COc1ccc(CNC(=O)c2c3n(c(=O)n2-c2ccc(OCC(F)(F)F)cc2)CCN(C(=O)c2ccc(Br)c(Cl)c2)C3)c(F)c1 [Example 303, N-[[4-(2-amino-2-oxo-ethoxy)-2-fluoro-phenyl]methyl]-7-(4-bromo-3-chloro-benzoyl)-3-oxo-2-[4-(2,2,2-trifluoroethoxy)phenyl]-6,8-dihydro-5H-imidazo[1,5-a]pyrazine-1-carboxamide]",500 to 5000
4,"N#Cc1cccc(-n2c(C(=O)NCc3ccccc3)c3n(c2=O)CCN(C(=O)c2ccc(Br)c(Cl)c2)C3)c1 [Example 44, N-benzyl-7-(4-bromo-3-chloro-benzoyl)-2-(3-cyanophenyl)-3-oxo-6,8-dihydro-5H-imidazo[1,5-a]pyrazine-1-carboxamide]",500 to 5000
5,"C[C@H](NC(=O)c1c2n(c(=O)n1C1CC1)CCN(C(=O)c1ccc(Br)c(Cl)c1)C2)c1ccccc1 (stereo in doubt) [Example 190, 7-(4-bromo-3-chloro-benzoyl)-2-cyclopropyl-3-oxo-N-[rac-(1S)-1-phenylethyl]-6,8-dihydro-5H-imidazo[1,5-a]pyrazine-1-carboxamide]",500 to 5000
6,"COc1cc(Cl)c(-n2c(C(=O)NCc3ccccc3)c3n(c2=O)CCN(C(=O)c2ccc(Cl)c(Cl)c2)C3)c(Cl)c1 [Example 96, N-benzyl-7-(3,4-dichlorobenzoyl)-2-(2,6-dichloro-4-methoxy-phenyl)-3-oxo-6,8-dihydro-5H-imidazo[1,5-a]pyrazine-1-carboxamide]",> 5000
7,"COc1ccc(-n2c(C(=O)NCc3ccc(F)cc3)c3n(c2=O)CCN(C(=O)c2ccc(Cl)c(Cl)c2)C3)cc1 [Example 61, 7-(3,4-dichlorobenzoyl)-N-[(4-fluorophenyl)methyl]-2-(4-methoxyphenyl)-3-oxo-6,8-dihydro-5H-imidazo[1,5-a]pyrazine-1-carboxamide]",500 to 5000
8,"O=C(NCc1ccccc1-c1cccnn1)c1c2n(c(=O)n1-c1ccc(OC3CC3)cc1)CCN(C(=O)c1ccc(Br)c(Cl)c1)C2 [Example 387, 7-(4-bromo-3-chloro-benozyl)-2-[4-(cyclopropoxy)phenyl]-3-oxo-N-[(2-pyridazin-3-ylphenyl)methyl]-6,8-dihydro-5H-imidazo[1,5-a]pyrazine-1-carboxamide]",< 100
9,"C[C@@H](NC(=O)c1c2n(c(=O)n1-c1ccc(OCC(F)(F)F)cc1)CCN(C(=O)c1ccc(Br)c(Cl)c1)C2)c1ccccc1 (stereo in doubt) [Example 128, 7-(4-bromo-3-chloro-benzoyl)-3-oxo-N-[rac-(1R)-1-phenylethyl]-2-[4-(2,2,2-trifluoroethoxy)phenyl]-6,8-dihydro-5H-imidazo[1,5-a]pyrazine-1-carboxamide]",100 to 500
10,"C[C@@H]1Cn2c(c(C(=O)NCc3ccccc3-n3cc(F)cn3)n(-c3ccc(OC4CC4)cc3)c2=O)CN1C(=O)c1ccc(Br)c(Cl)c1 (racemic) [Example 441, rac-(6R)-7-(4-bromo-3-chloro-benzoyl)-2-[4-(cyclopropxy)phenyl]-N-[[2-(4-fluoropyrazol-1-yl)phenyl]methyl]-6-methyl-3-oxo-6,8-dihydro-5H-imidazo[1,5-a]pyrazine-1-carboxamide]",100 to 500
11,"COc1ccc(-n2c(C(=O)N[C@H](c3ccccc3)C(F)F)c3n(c2=O)CCN(C(=O)c2ccc(Br)c(Cl)c2)C3)cc1 (stereo in doubt) [Example 253, 7-(4-bromo-3-chloro-benzoyl)-2-(4-methoxyphenyl)-3-oxo-N-[rac-(1R)-2,2-difluoro-1-phenyl-ethyl]-6,8-dihydro-5H-imidazo[1,5-a]pyrazine-1-carboxamide]",100 to 500
12,"CC(C)Oc1ccc(-n2c(C(=O)NCc3ccccc3)c3n(c2=O)CCN(C(=O)/C=C/c2cccc(Cl)c2Cl)C3)cc1 [Example 226, N-benzyl-7-[(E)-3-(2,3-dichlorophenyl)prop-2-enoyl]-2-(4-isopropoxyphenyl)-3-oxo-6,8-dihydro-5H-imidazo[1,5-a]pyrazine-1-carboxamide]",> 5000
13,"O=C(NCc1ccccc1)c1c2n(c(=O)n1-c1ccc(N3CC(F)(F)C3)cc1)CCN(C(=O)c1ccc(Br)c(Cl)c1)C2 [Example 391, N-benzyl-7-(4-bromo-3-chloro-benzoyl)-2-[4-(3,3-difluoroazetidin-1-yl)phenyl]-3-oxo-6,8-dihydro-5H-imidazo[1,5-a]pyrazine-1-carboxamide]",100 to 500
14,"COc1ccc([C@H](C)NC(=O)c2c3n(c(=O)n2-c2ccc(OC4CC4)cc2)CCN(C(=O)c2ccc(Br)c(Cl)c2)C3)cc1 [Example 443, 7-(4-bromo-3-chloro-benozyl)-2-[4-(cyclopropoxy)phenyl]-N-[(1S)-1-(4-methoxyphenyl)ethyl]-3-oxo-6,8-dihydro-5H-imidazo[1,5-a]pyrazine-1-carboxamide]",100 to 500
15,"COC1CCC(n2c(C(=O)N[C@@H](C)c3ccccc3)c3n(c2=O)CCN(C(=O)c2ccc(Br)c(Cl)c2)C3)CC1 (mixture of isomers) [Example 247, 7-(4-bromo-3-chloro-benzoyl)-2-(4-methoxycyclohexyl)-3-oxo-N-[rac-(1S)-1-phenylethyl]-6,8-dihydro-5H-imidazo[1,5-a]pyrazine-1-carboxamide]",> 5000
16,"O=C(c1ccc(Br)c(Cl)c1)N1CCn2c(c3n(c2=O)C[C@H](CO)CN(Cc2ccccc2)C3=O)C1 (stereo in doubt) [Example 146, rac-(11R)-13-benzyl-4-(4-bromo-3-chloro-benzoyl)-11-(hydroxymethyl)-4,7,9,13-tetrazatricyclo[7.5.0.0^2,7]tetradec-1-ene-8,14-dione]",100 to 500
17,"CC(C)Oc1ccc(-n2c(C(=O)NCc3ccccc3)c3n(c2=O)CCN(C(=O)c2ccc(Br)c(C#N)c2)C3)cc1 [Example 217, N-benzyl-7-(4-bromo-3-cyano-benzoyl)-2-(4-isopropoxyphenyl)-3-oxo-6,8-dihydro-5H-imidazo[1,5-a]pyrazine-1-carboxamide]",500 to 5000
18,"COc1ccc(-n2c(C(=O)N[C@@H](C)c3ccccc3F)c3n(c2=O)CCN(C(=O)c2ccc(Br)c(Cl)c2)C3)cc1 (stereo in doubt) [Example 162, 7-(4-bromo-3-chloro-benzoyl)-2-(4-methoxyphenyl)-3-oxo-N-[rac-(1S)-1-(2-fluorophenyl)ethyl]-6,8-dihydro-5H-imidazo[1,5-a]pyrazine-1-carboxamide]",100 to 500
19,"COc1ccc(-n2c(C(=O)Nc3ccccc3)c3n(c2=O)CCN(C(=O)c2ccc(Cl)c(Cl)c2)C3)cc1 [Example 83, 7-(3,4-dichlorobenzoyl)-2-(4-methoxyphenyl)-3-oxo-N-phenyl-6,8-dihydro-5H-imidazo[1,5-a]pyrazine-1-carboxamide]",> 5000
20,"C[C@H](NC(=O)c1c2n(c(=O)n1-c1ccc(OC3CC3)cc1)CCN(C(=O)c1ccc(Br)c(Cl)c1)C2)c1ccc(O[C@H](C)C(N)=O)cc1F (stereo in doubt) [Example 357, 7-(4-bromo-3-chloro-benzoyl)-2-[4-(cyclopropoxy)phenyl]-3-oxo-N-[rac-(1S)-1-[2-fluoro-4-[rac-(1R)-2-amino-1-methyl-2-oxo-ethoxy]phenyl]ethyl]-6,8-dihydro-5H-imidazo[1,5-a]pyrazine-1-carboxamide]",100 to 500
21,"C[C@H](Oc1ccc([C@H](C)NC(=O)c2c3n(c(=O)n2-c2ccc(OCC(F)(F)F)cc2)CCN(C(=O)c2ccc(Br)c(Cl)c2)C3)c(F)c1)C(N)=O (stereo in doubt) [Example 362, 7-(4-bromo-3-chloro-benzoyl)-3-oxo-N-[rac-(1S)-1-[2-fluoro-4-[rac-(1S)-2-amino-1-methyl-2-oxo-ethoxy]phenyl]ethyl]-2-[4-(2,2,2-trifluoroethoxy)phenyl]-6,8-dihydro-5H-imidazo[1,5-a]pyrazine-1-carboxamide]",100 to 500
22,"CC(C)COc1ccc(-n2c(C(=O)NCc3ccccc3)c3n(c2=O)CCN(C(=O)c2ccc(Br)c(Cl)c2)C3)cc1 [Example 272, N-benzyl-7-(4-bromo-3-chloro-benzoyl)-2-(4-isobutoxyphenyl)-3-oxo-6,8-dihydro-5H-imidazo[1,5-a]pyrazine-1-carboxamide]",100 to 500
23,"C[C@@H](NC(=O)c1c2n(c(=O)n1-c1ccc(OC3CC3)cc1)CCN(C(=O)c1ccc(Br)c(Cl)c1)C2)c1cccc2nccnc12 (racemic) [Example 383, 7-(4-bromo-3-chloro-benzoyl)-2-[4-(cyclopropoxy)phenyl]-3-oxo-N-[rac-(1R)-1-quinoxalin-5-ylethyl]-6,8-dihydro-5H-imidazo[1,5-a]pyrazine-1-carboxamide]",100 to 500
24,"C[C@@H](c1ccccc1)N1C[C@H](O)Cn2c(c3n(c2=O)CCN(C(=O)c2ccc(Br)c(Cl)c2)C3)C1=O (stereo in doubt) [Example 238, (11SR)-4-(4-bromo-3-chloro-benzoyl)-11-hydroxy-13-[(1S)-1-phenylethyl]-4,7,9,13-tetrazatricyclo[7.5.0.0^2,7]tetradec-1-ene-8,14-dione]",100 to 500
